Patent publication US20160177395A1, “BIOMARKERS FOR THE PREDICTION OF RENAL INJURY” (priority 2007, published 2016)

Test system: kidney tissues
Test: Random-Forest classifier for renal toxicity, discovery stage (Day-5 and Day-1 signatures)
Design: species or system rat
Conditions: Day-5 animals, qRT-PCR data, signature of Table 13
Excerpt: Finding signatures using machine learning algorithms requires two steps—selecting a limited set of features to be used for the signature, and building a classifier using these features. The feature selection stage is especially significant here for several reasons. Large number of features means a low signal to noise ratio, tampering the classifier performance, large number of features, compared to the relatively small number of samples, means that spurious features might exists. These are features that give good classification on the experiment data by chance, causing the classifier to be over-fitted to the learning set and have low prediction ability, and finally—a small number of features is important for practical application of the signature.
The initial features selection process is done by performing Mann-Whitney (Wilcoxon) rank-sum test on the data, considering only probesets whose overall normalized expression mean is over 25, to avoid working at noise-level. […]
The qRT-PCR data was used to construct the optimal Random-Forest classifier for Day-5 (Table 13) and Day-1 (Table 16). The optimal performance of the Day-5 signatures, as measured by cross validation is—Accuracy of 94% and LOR of 5.6. […]

[Cl][Cd][Cl] [Cadmium chloride]
Samples classified correctly as toxic by the optimal Day-5 classifier: 5 out of 6
